Assay results reported in US9273067B2, “Pyrazolopyrimidine macrocycles as inhibitors of human immunodeficiency virus replication” (BRISTOL-MYERS SQUIBB COMPANY, priority 2014, dated 2016).
Several values for one entry are separate records, joined by “and”; a condition that tells them apart may be missing. Equal entries are not always repeated. Where two headings read alike, the source gives them in different places.

Columns and labels:
[1] = not given; remark: listed apart in the source
[2] = test system: NL-RLuc virus (recombinant HIV NL4-3 with Renilla Luciferase) in MT-2 cells; assay: Inhibition of HIV replication (NL-RLuc virus in MT-2 cells, luciferase readout); format: cell-based, human immunodeficiency virus (HIV); details: NL-RLuc virus infecting MT-2 cells, 5 days of incubation, 10% FBS, luciferase quantitation, at least 2 experiments
Outline: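 NL4-3 carrying Renilla luciferase in place of part of nef, produced in 293T cells, was used to infect MT-2 cells in RPMI 1640/10% FBS with serial compound dilutions. After 5 days, virus growth was read by luciferase. EC50 came from the median effect equation over at least 2 experiments.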

**Q.** With CCOC(=O)[C@@H](OC(C)(C)C)c1c(C)nc2cc3nn2c1N1CCC(C)(CC1)OCC=CCCc1cccc(c1)COC3 as the compound, how does the ring closure, isolated yield (from C=CCCc1cccc(COCc2cc3nc(C)c([C@H](OC(C)(C)C)C(=O)OCC)c(N4CCC(C)(OCC=C)CC4)n3n2)c1, rcm bond, 20-membered ring, Grubbs II, DCM, 1.62 mM, 2.0 h, 2 steps) read?
**A.** The ring closure, isolated yield was 41.8%.

**Q.** With CCOC(=O)[C@@H](OC(C)(C)C)c1c(C)nc2cc3nn2c1N1CCC(C)(CC1)OCC=CCN(Cc1ccc(F)c(C)c1)C(=O)C(=O)NC3 as the compound, how does the ring closure, yield after HPLC ([1]; from C=CCOC1(C)CCN(c2c([C@H](OC(C)(C)C)C(=O)OCC)c(C)nc3cc(CNC(=O)C(=O)N(CC=C)Cc4ccc(F)c(C)c4)nn23)CC1, rcm bond, 18-membered ring, Hoveyda-Grubbs II (5 mol%), then NaOH, 1,2-dichloroethane, 4.03 mM, 70.0 °C, 2.0 h, 2 steps) read?
**A.** Its ring closure, yield after HPLC is 63.3%.

**Q.** For CCOC(=O)[C@@H](OC(C)(C)C)c1c(C)nc2cc3nn2c1N1CCC(C)(CC1)OCC=CCOC1(CCCCC1)c1cn(nn1)C3, which ring closure, yield after HPLC ([1]; from C=CCOC1(C)CCN(c2c([C@H](OC(C)(C)C)C(=O)OCC)c(C)nc3cc(Cn4cc(C5(OCC=C)CCCCC5)nn4)nn23)CC1, rcm bond, 19-membered ring, Hoveyda-Grubbs II (5 mol%), then NaOH, 1,2-dichloroethane, 4.3 mM, 70.0 °C, 2.0 h, 2 steps) is on record?
**A.** Its ring closure, yield after HPLC is 30.6% and 24.1%.

**Q.** For CCOC(=O)[C@@H](OC(C)(C)C)c1c(C)nc2cc3nn2c1N1CCC(C)(CC1)OCC=CCOc1cccc(c1)-c1cn(nn1)C3, which ring closure, yield after HPLC ([1]; from C=CCOc1cccc(-c2cn(Cc3cc4nc(C)c([C@H](OC(C)(C)C)C(=O)OCC)c(N5CCC(C)(OCC=C)CC5)n4n3)nn2)c1, rcm bond, 21-membered ring, Hoveyda-Grubbs II (5 mol%), then H2, Pd/C, then NaOH, 1,2-dichloroethane, 1.8 mM, 70.0 °C, 2.0 h, 3 steps) is on record?
**A.** The ring closure, yield after HPLC was 37.2%.

**Q.** Which ring closure, yield after HPLC ([1]; from C=CCOc1ccccc1CC(=O)NCc1cc2nc(C)c([C@H](OC(C)(C)C)C(=O)OCC)c(N3CCC(C)(OCC=C)CC3)n2n1, rcm bond, 20-membered ring, Hoveyda-Grubbs II (5 mol%), then NaOH, 1,2-dichloroethane, 8.6 mM, 70.0 °C, 4.0 h, 2 steps) does the source give for CCOC(=O)[C@@H](OC(C)(C)C)c1c(C)nc2cc3nn2c1N1CCC(C)(CC1)OCC=CCOc1ccccc1CC(=O)NC3 here?
**A.** The ring closure, yield after HPLC was 11.6% and 31.6%.

**Q.** For CCOC(=O)[C@@H](OC(C)(C)C)c1c(C)nc2cc3nn2c1N1CCC(C)(CC1)OCC=CC[C@H](C)Oc1cc(F)c(F)cc1COC3, which ring closure, yield after HPLC ([1]; from C=CCOC1(C)CCN(c2c([C@H](OC(C)(C)C)C(=O)OCC)c(C)nc3cc(COCc4cc(F)c(F)cc4O[C@@H](C)CC=C)nn23)CC1, rcm bond, 20-membered ring, Hoveyda-Grubbs II/CuI, DCE, 4.25 mM, 90.0 °C, 3.0 h) is on record?
**A.** Its ring closure, yield after HPLC is 27%.

**Q.** For CCOC(=O)[C@@H](OC(C)(C)C)c1c(C)nc2cc3nn2c1N1CCC(C)(CC1)OCC=CCc1ccccc1C(=O)NC3, which ring closure, yield after HPLC ([1]; from C=CCOC1(C)CCN(c2c([C@H](OC(C)(C)C)C(=O)OCC)c(C)nc3cc(CNC(=O)c4ccccc4CC=C)nn23)CC1, rcm bond, 18-membered ring, Hoveyda-Grubbs II (5 mol%), then NaOH, 1,2-dichloroethane, 4.7 mM, 70.0 °C, 2.0 h, 2 steps) is on record?
**A.** The ring closure, yield after HPLC was 71.1%.

**Q.** With CCOC(=O)[C@@H](OC(C)(C)C)c1c(C)nc2cc3nn2c1N1CCC(C)(CC1)OCC=Cc1ccccc1CC=C3 as the compound, how does the ring closure, isolated yield (from C=CCOC1(C)CCN(c2c([C@H](OC(C)(C)C)C(=O)OCC)c(C)nc3cc(C=CCc4ccccc4Br)nn23)CC1, cc_pd bond, 17-membered ring, Pd2(dba)3/PPh3/Et3N, acetonitrile, 35.2 mM, 120.0 °C, 20.0 h) read?
**A.** The ring closure, isolated yield was 51.6%.

**Q.** For CCOC(=O)[C@@H](OC(C)(C)C)c1c(C)nc2cc3nn2c1N1CCC(C)(CC1)OCCCC[C@H](C)Oc1c(F)cc(F)cc1CCC3, which ring closure, yield after HPLC ([1]; from CCOC(=O)[C@@H](OC(C)(C)C)c1c(C)nc2cc(CCCc3cc(F)cc(F)c3O)nn2c1N1CCC(C)(OCCCC[C@@H](C)O)CC1, ether bond, 20-membered ring, PPh3/DEAD, THF, 6.4 mM, 3.0 h, 2 steps) is on record?
**A.** The ring closure, yield after HPLC was 37.6%.

**Q.** Which ring closure, yield after HPLC ([1]; from CCOC(=O)[C@@H](OC(C)(C)C)c1c(C)nc2cc(CCCc3cc(F)c(F)cc3O)nn2c1N1CCC(C)(OCCCC[C@@H](C)O)CC1, ether bond, 20-membered ring, PPh3/DEAD, THF, 10.5 mM, 3.0 h, 2 steps) does the source give for CCOC(=O)[C@@H](OC(C)(C)C)c1c(C)nc2cc3nn2c1N1CCC(C)(CC1)OCCCC[C@H](C)Oc1cc(F)c(F)cc1CCC3 here?
**A.** The ring closure, yield after HPLC was 19.2%.

**Q.** Which ring closure, yield after HPLC ([1]; from CCOC(=O)[C@@H](OC(C)(C)C)c1c(C)nc2cc(CCCc3c(O)ccc(F)c3F)nn2c1N1CCC(C)(OCCCC[C@@H](C)O)CC1, ether bond, 20-membered ring, PPh3/DEAD, THF, 5.2 mM, 3.0 h, 2 steps) does the source give for CCOC(=O)[C@@H](OC(C)(C)C)c1c(C)nc2cc3nn2c1N1CCC(C)(CC1)OCCCC[C@H](C)Oc1ccc(F)c(F)c1CCC3 here?
**A.** The ring closure, yield after HPLC was 23.6%.

**Q.** With COC(=O)[C@@H](OC(C)(C)C)c1c(C)nc2cc3nn2c1N1CCC(C)(CC1)OCC=Cc1ccccc1COC3 as the compound, how does the ring closure, isolated yield (from C=CCOC1(C)CCN(c2c([C@H](OC(C)(C)C)C(=O)OC)c(C)nc3cc(COCc4ccccc4Br)nn23)CC1, cc_pd bond, 17-membered ring, Pd2(dba)3/PPh3/Et3N, acetonitrile, 40.0 mM, 120.0 °C, 18.0 h) read?
**A.** Its ring closure, isolated yield is 78%.

**Q.** What does the source list for Cc1nc2cc3nn2c(c1[C@H](OC(C)(C)C)C(=O)O)N1CCC(C)(CC1)OCC=CC[C@H](C)Oc1ccc(F)cc1COC3 [Example 27, (2S)-2-(tert-Butoxy)-2-[(20S)-15-fluoro-4,20,26-trimethyl-11,19,25-trioxa-1,5,7,8-tetraazapentacyclo[24.2.2.1^6,^9.0^2,^7.0^13,^18]hentriaconta-2,4,6(31),8,13,15,17,22-octaen-3-yl]acetic acid]?
**A.** EC50 ([2]; MT2, 120 h): 37 nM; ring closure, yield after HPLC ([1]; from C=CCOC1(C)CCN(c2c([C@H](OC(C)(C)C)C(=O)O)c(C)nc3cc(COCc4cc(F)ccc4O[C@@H](C)CC=C)nn23)CC1, rcm bond, 20-membered ring, Hoveyda-Grubbs II/CuI, DCE, 0.41 mM, 90.0 °C, 3.0 h): 50.2%

**Q.** What does the source list for Cc1ccc2c(c1)COCc1cc3nc(C)c([C@H](OC(C)(C)C)C(=O)O)c(n3n1)N1CCC(C)(CC1)OCC=CC[C@H](C)O2 [Example 29, (2S)-2-(tert-Butoxy)-2-[(20S)-4,15,20,26-tetramethyl-11,19,25-trioxa-1,5,7,8-tetraazapentacyclo[24.2.2.1^6,^9.0^2,^7.0^13,^18]hentriaconta-2,4,6(31),8,13,15,17,22-octaen-3-yl]acetic acid]?
**A.** EC50 ([2]; MT2, 120 h): 6 nM; ring closure, yield after HPLC ([1]; from C=CCOC1(C)CCN(c2c([C@H](OC(C)(C)C)C(=O)O)c(C)nc3cc(COCc4cc(C)ccc4O[C@@H](C)CC=C)nn23)CC1, rcm bond, 20-membered ring, Hoveyda-Grubbs II/CuI, DCE, 13.0 mM, 90.0 °C, 3.0 h): 5.64%

**Q.** For Cc1nc2cc3nn2c(c1[C@H](OC(C)(C)C)C(=O)O)N1CCC(C)(CC1)OCC=CC[C@H](C)Oc1cc(F)cc(F)c1COC3 [Example 31, (2S)-2-(tert-Butoxy)-2-[(20S)-14,16-difluoro-4,20,26-trimethyl-11,19,25-trioxa-1,5,7,8-tetraazapentacyclo[24.2.2.1^6,^9.0^2,^7.0^13,^18]hentriaconta-2,4,6(31),8,13,15,17,22-octaen-3-yl]acetic acid], which EC50 ([2]; MT2, 120 h) is on record?
**A.** Its EC50 is 12 nM.

**Q.** What about the ring closure, yield after HPLC ([1]; from C=CCOC1(C)CCN(c2c([C@H](OC(C)(C)C)C(=O)O)c(C)nc3cc(COCc4c(F)cc(F)cc4O[C@@H](C)CC=C)nn23)CC1, rcm bond, 20-membered ring, Hoveyda-Grubbs II/CuI, DCE, 11.5 mM, 90.0 °C, 1.5 h) of the same compound?
**A.** Its ring closure, yield after HPLC is 5.67%.

**Q.** Which results are given for Cc1nc2cc3nn2c(c1[C@H](OC(C)(C)C)C(=O)O)N1CCC(C)(CC1)OCC=CC[C@H](C)Oc1cc(Cl)ccc1COC3 [Example 34, (2S)-2-(tert-Butoxy)-2-[(20S)-16-chloro-4,20,26-trimethyl-11,19,25-trioxa-1,5,7,8-tetraazapentacyclo[24.2.2.1^6,^9.0^2,^7.0^13,^18]hentriaconta-2,4,6(31),8,13,15,17,22-octaen-3-yl]acetic acid]?
**A.** EC50 ([2]; MT2, 120 h): 5 nM; ring closure, yield after HPLC ([1]; from C=CCOC1(C)CCN(c2c([C@H](OC(C)(C)C)C(=O)O)c(C)nc3cc(COCc4ccc(Cl)cc4O[C@@H](C)CC=C)nn23)CC1, rcm bond, 20-membered ring, Hoveyda-Grubbs II/CuI, DCE, 31.5 mM, 90.0 °C, 1.5 h): 7.32%

**Q.** For Cc1nc2cc3nn2c(c1[C@H](OC(C)(C)C)C(=O)O)N1CCC(C)(CC1)OCCCc1cc(F)ccc1COC3 [Example 67, (2S)-2-(tert-Butoxy)-2-{16-fluoro-4,23-dimethyl-11,22-dioxa-1,5,7,8tetraazapentacyclo[21.2.2.1^6,^9.0^2,^7.0^13,^18]octacosa-2,4,6(28),8,13(18),14,16-heptaen-3-yl}acetic acid], which EC50 ([2]; MT2, 120 h) is on record?
**A.** Its EC50 is 5 nM.

**Q.** Which EC50 ([2]; MT2, 120 h) does the source give for Cc1nc2cc3nn2c(c1[C@H](OC(C)(C)C)C(=O)O)N1CCC(C)(CC1)OCCCCc1cc(F)c(F)cc1COC3 [Example 68, (2S)-2-(tert-Butoxy)-2-{15,16-difluoro-4,24-dimethyl-11,23-dioxa-1,5,7,8-tetraazapentacyclo[22.2.2.1^6,^9.0^2,^7.0^13,^18]nonacosa-2,4,6(29),8,13(18),14,16-heptaen-3-yl}acetic acid] here?
**A.** The EC50 was 1 nM.

**Q.** For Cc1cc2c(cc1Cl)COCc1cc3nc(C)c([C@H](OC(C)(C)C)C(=O)O)c(n3n1)N1CCC(C)(CC1)OCCCC[C@H](C)O2 [Example 69, (2S)-2-(tert-Butoxy)-2-[(20S)-15-chloro-4,16,20,26-tetramethyl-11,19,25-trioxa-1,5,7,8-tetraazapentacyclo[24.2.2.1^6,^9.0^2,^7.0^13,^18]hentriaconta-2,4,6(31),8,13,15,17-heptaen-3-yl]acetic acid], which EC50 ([2]; MT2, 120 h) is on record?
**A.** The EC50 was 12 nM.

**Q.** Which EC50 ([2]; MT2, 120 h) does the source give for Cc1cc2c(cc1Cl)COCc1cc3nc(C)c([C@H](OC(C)(C)C)C(=O)O)c(n3n1)N1CCC(C)(CC1)OCCCCC[C@H](C)O2 [Example 70, (2S)-2-(tert-Butoxy)-2-[(20S)-15-chloro-4,16,20,27-tetramethyl-11,19,26-trioxa-1,5,7,8-tetraazapentacyclo[25.2.2.1^6,^9.0^2,^7.0^13,^18]dotriaconta-2,4,6(32),8,13,15,17-heptaen-3-yl]acetic acid] here?
**A.** Its EC50 is 43 nM.

**Q.** For “(2S)-2-(tert-Butoxy)-2-[4,22-dimethyl-15-(propan-2-yl)-16,21-dioxa-1,5,7,8,11,12,13-heptaazapentacyclo[20.2.2.1^6,^9.1^11,^14.0^2,^7]octacosa-2,4,6(28),8,12,14(27),19-heptaen-3-yl]acetic acid [Example 9]”, which EC50 ([2]; read-out: EC50) is on record?
**A.** Its EC50 is 93 nM.
